# ChEMBL document CHEMBL4699608, “Aliphatic amines are viable pro-drug moieties in phosphonoamidate drugs” (Bioorg Med Chem Lett, 2020)
# The source made the active and inactive calls. No cut-off for these calls is given here.
# Experiments:
# [1] = test system: D-423MG; assay: Cytotoxicity against human D423 cells with PAPSS1 deficient; format: functional, cell-based
# [2] = test system: D-423MG; assay: Cytotoxicity against human D423 cells with CES2 deficient; format: functional, cell-based
# [3] = test system: D-423MG; assay: Cytotoxicity against human D423 cells with HINT1 deficient; format: functional, cell-based
# [4] = test system: D-423MG; assay: Cytotoxicity against human D423 cells with ENO1 deficient assessed as reduction in cell viability incubated for 5 days by crystal violet staining based spectrophotometry; format: functional; settings: 120 h
Compound,IC50 [4] [nM],also measured
CC(C)(C)C(=O)OCOP(=O)(NCC1CC1)C1CCCN(O)C1=O (configuration not stated),,Activity [1]: Active; Activity [2]: Active; Activity [3]: Active
CC(C)(C)C(=O)OCOP(=O)(NCc1ccc(F)c(F)c1)C1CCCN(O)C1=O (configuration not stated),84.6,
CC(C)(C)C(=O)OCOP(=O)(NCc1ccc(F)cc1)C1CCCN(O)C1=O (configuration not stated),129,
CNP(=O)(OCOC(=O)C(C)(C)C)C1CCCN(O)C1=O (configuration not stated),115,
CC(C)(C)C(=O)OCOP(=O)(OCOC(=O)C(C)(C)C)C1CCCN(O)C1=O (configuration not stated),17.3,
CC(C)OC(=O)C(C)NP(=O)(OCOC(=O)C(C)(C)C)C1CCCN(O)C1=O (configuration not stated),258,
O=C1C(P(=O)(O)NCC2CC2)CCCN1O (configuration not stated),8830,
CC(C)(C)C(=O)OCOP(=O)(NCc1ccccc1)C1CCCN(O)C1=O (configuration not stated),244,
CC(C)(C)C(=O)OCOP(N)(=O)C1CCCN(O)C1=O (configuration not stated),62.6,
CC(C)(C)C(=O)OCOP(=O)(NCc1ccc(F)cc1F)C1CCCN(O)C1=O (configuration not stated),80.3,
CC(C)(C)C(=O)OCOP(=O)(NCc1ccccc1F)C1CCCN(O)C1=O (configuration not stated),196,
CC(C)(C)C(=O)OCOP(=O)(NCc1cccc(F)c1)C1CCCN(O)C1=O (configuration not stated),103,
CC(C)(C)C(=O)OCOP(=O)(NC1CCC1)C1CCCN(O)C1=O (configuration not stated),121,
CCCCCCCCCCCCNP(=O)(O)C1CCCN(O)C1=O (configuration not stated),24,
CC(C)(C)C(=O)OCOP(=O)(NCC1CCCCC1)C1CCCN(O)C1=O (configuration not stated),81.1,
